Read-outs that look alike come from different tables or passages of the source.
How the values were obtained:
Puccinia triticina = assay: Puccinia triticina-test (wheat)/preventive, evaluated 8 days after the inoculation; format: in vivo
[1] = test system: Blumeria graminis fsp. hordei; assay: Blumeria test (barley)/preventive, evaluated 7 days after the inoculation; format: in vivo
Venturia inaequalis = assay: Venturia test (apples)/preventive, evaluated 10 days after the inoculation
Description: After the spray coating has dried on, the plants are inoculated with an aqueous conidia suspension of the causal agent of apple scab (Venturia inaequalis) and then remain for 1 day in an incubation cabinet at approximately 20° C. and a relative atmospheric humidity of 100%. The plants are then placed in a greenhouse at approximately 21° C. and a relative atmospheric humidity of approximately 90%.
The test is evaluated 10 days after the inoculation.

Alternaria solani = assay: Alternaria test (tomatoes)/preventive, evaluated 3 days after the inoculation; format: in vivo
Phytophthora infestans = format: in vivo
Pyrenophora teres = assay: Pyrenophora teres-test (barley)/preventive, evaluated 8 days after the inoculation; format: in vivo
Septoria tritici = assay: Septoria tritici-test (wheat)/preventive, evaluated 21 days after the inoculation; format: in vivo
Sphaerotheca fuliginea = assay: Sphaerotheca test (cucumbers)/preventive, evaluated 7 days after the inoculation; format: in vivo
Botrytis cinerea = assay: Botrytis test (beans)/preventive, size of the lesions 2 days after the inoculation; conditions: Table 17
Description: After the spray coating has dried on, 2 small pieces of agar covered with growth of Botrytis cinerea are placed on each leaf. The inoculated plants are placed in a darkened chamber at 20° C. and a relative atmospheric humidity of 100%.
2 days after the inoculation, the size of the lesions on the leaves is evaluated.

Compound: Cn1cc(C(=O)Nc2ccccc2-c2cc(F)c(F)c(F)c2)c(C(F)F)n1 [F72, fluxapyroxad]
- Efficacy in % found (Puccinia triticina; Table 22, 15.625 ppm a.i.): 22%
- Efficacy in % found (Puccinia triticina; Table 22, 31.25 ppm a.i.): 22%
- Efficacy in % found ([1]; Table 15, 31.25 ppm a.i.): 0%
- Efficacy in % found (Venturia inaequalis; Table 31, 0.25 ppm a.i.): 0%
- Efficacy in % found (Alternaria solani; Table 12, 0.5 ppm a.i.): 45%
- Efficacy in % found (Phytophthora infestans; Table 19, 100 ppm a.i.): 0%
- Efficacy in % found (Pyrenophora teres; Table 25, 15.625 ppm a.i.): 80%
- Efficacy in % found (Pyrenophora teres; Table 25, 31.25 ppm a.i.): 90%
- Efficacy in % found (Septoria tritici; Table 26, 31.25 ppm a.i.): 13%

Compound: Cc1nn(C)c(F)c1C(=O)Nc1ccccc1C(C)CC(C)C (stereo not shown) [F84, penflufen]
- Efficacy in % found (Puccinia triticina; Table 22, 31.25 ppm a.i.): 67%
- Efficacy in % found (Sphaerotheca fuliginea; Table 29, 0.5 ppm a.i.): 0%
- Efficacy in % found (Venturia inaequalis; Table 31, 0.5 ppm a.i.): 0%
- Efficacy in % found (Phytophthora infestans; Table 19, 100 ppm a.i.): 8%
- Efficacy in % found (Pyrenophora teres; Table 25, 62.5 ppm a.i.): 70%
- Efficacy in % found (Pyrenophora teres; Table 25, 125 ppm a.i.): 60%

Compound: CO/C=C(/C(=O)OC)c1ccccc1Oc1cc(Oc2ccccc2C#N)ncn1 [F107, azoxystrobin]
- Efficacy in % found (Puccinia triticina; Table 22, 7.8125 ppm a.i.): 67%
- Efficacy in % found ([1]; Table 15, 31.25 ppm a.i.): 10%
- Efficacy in % found (Sphaerotheca fuliginea; Table 28, 0.5 ppm a.i.): 37%
- Efficacy in % found (Venturia inaequalis; Table 32, 0.5 ppm a.i.): 84%
- Efficacy in % found (Alternaria solani; Table 13, 2 ppm a.i.): 41%
- Efficacy in % found (Pyrenophora teres; Table 25, 15.625 ppm a.i.): 60%
- Efficacy in % found (Pyrenophora teres; Table 25, 31.25 ppm a.i.): 90%
- Efficacy in % found (Septoria tritici; Table 26, 15.625 ppm a.i.): 13%
- Efficacy in % found (Septoria tritici; Table 26, 31.25 ppm a.i.): 50%

Compound: O=C(NCc1ncc(C(F)(F)F)cc1Cl)c1c(Cl)cccc1Cl [F143, fluopicolide]
- Efficacy in % found (Venturia inaequalis; Table 32, 50 ppm a.i.): 0%
- Efficacy in % found (Phytophthora infestans; Table 20, 5 ppm a.i.): 21%

Compound: N#Cc1ccccc1NC(=O)c1snc(Cl)c1Cl [F187, isotianil]
- Efficacy in % found (Sphaerotheca fuliginea; Table 30, 100 ppm a.i.): 20%
- Efficacy in % found (Venturia inaequalis; Table 31, 50 ppm a.i.): 0%
- Efficacy in % found (Alternaria solani; Table 14, 50 ppm a.i.): 18%
- Efficacy in % found (Septoria tritici; Table 27, 250 ppm a.i.): 29%
- Efficacy in % found (Septoria tritici; Table 27, 500 ppm a.i.): 29%
- Efficacy in % found (Botrytis cinerea; 125 ppm a.i.): 40%

Compound: C#CCOc1ccc(CCNC(=O)C(OCC#C)c2ccc(Cl)cc2)cc1OC (stereo not shown) [F206, mandipropamid]
- Efficacy in % found (Sphaerotheca fuliginea; Table 28, 100 ppm a.i.): 13%
- Efficacy in % found (Phytophthora infestans; Table 20, 0.25 ppm a.i.): 47%

Compound: COCC(=O)N(c1c(C)cccc1C)[C@H](C)C(=O)OC [F242, metalaxyl-M (mefenoxam)]
- Efficacy in % found (Sphaerotheca fuliginea; Table 28, 100 ppm a.i.): 13%
- Efficacy in % found (Venturia inaequalis; Table 32, 50 ppm a.i.): 0%

Compound: chlorothalonil [F155]
- Efficacy in % found (Venturia inaequalis; Table 33, 10 ppm a.i.): 4%
- Efficacy in % found (Phytophthora infestans; Table 21, 20 ppm a.i.): 0%
- Efficacy in % found (Pyrenophora teres; Table 24, 250 ppm a.i.): 50%
- Efficacy in % found (Septoria tritici; Table 27, 125 ppm a.i.): 57%

Compound: difenoconazole [F7]
- Efficacy in % found (Puccinia triticina; Table 23, 31.25 ppm a.i.): 30%
- Efficacy in % found (Puccinia triticina; Table 23, 62.5 ppm a.i.): 60%
- Efficacy in % found ([1]; Table 16, 62.5 ppm a.i.): 44%
- Efficacy in % found ([1]; Table 16, 125 ppm a.i.): 67%
- Efficacy in % found (Sphaerotheca fuliginea; Table 29, 1 ppm a.i.): 0%
- Efficacy in % found (Venturia inaequalis; Table 31, 1 ppm a.i.): 38%
- Efficacy in % found (Alternaria solani; Table 12, 2 ppm a.i.): 30%
- Efficacy in % found (Phytophthora infestans; Table 19, 100 ppm a.i.): 0%

Compound: fenamidone [F114]
- Efficacy in % found (Sphaerotheca fuliginea; Table 28, 100 ppm a.i.): 21%
- Efficacy in % found (Venturia inaequalis; Table 32, 50 ppm a.i.): 0%
- Efficacy in % found (Alternaria solani; Table 13, 50 ppm a.i.): 62%
- Efficacy in % found (Phytophthora infestans; Table 20, 1 ppm a.i.): 41%

Compound: fenhexamid [F16]
- Efficacy in % found (Sphaerotheca fuliginea; Table 30, 100 ppm a.i.): 0%
- Efficacy in % found (Venturia inaequalis; Table 31, 25 ppm a.i.): 0%
- Efficacy in % found (Alternaria solani; Table 14, 50 ppm a.i.): 50%
- Efficacy in % found (Phytophthora infestans; TABLE 17 (Phytophthora), 100 ppm a.i.): 0%

Compound: fludioxonil [F248]
- Efficacy in % found (Sphaerotheca fuliginea; Table 30, 100 ppm a.i.): 30%
- Efficacy in % found (Venturia inaequalis; Table 31, 50 ppm a.i.): 0%
- Efficacy in % found (Botrytis cinerea; 2.5 ppm a.i.): 26%

Compound: flutolanil [F71]
- Efficacy in % found (Sphaerotheca fuliginea; Table 30, 100 ppm a.i.): 20%
- Efficacy in % found (Venturia inaequalis; Table 31, 50 ppm a.i.): 0%
- Efficacy in % found (Botrytis cinerea; 250 ppm a.i.): 30%

Compound: fosetyl-aluminium [F281]
- Efficacy in % found (Sphaerotheca fuliginea; Table 28, 100 ppm a.i.): 13%
- Efficacy in % found (Venturia inaequalis; Table 32, 50 ppm a.i.): 0%
- Efficacy in % found (Alternaria solani; Table 13, 50 ppm a.i.): 15%
- Efficacy in % found (Phytophthora infestans; Table 20, 50 ppm a.i.): 55%

Compound: mancozeb [F174]
- Efficacy in % found (Sphaerotheca fuliginea; Table 29, 20 ppm a.i.): 0%
- Efficacy in % found (Venturia inaequalis; Table 33, 10 ppm a.i.): 0%
- Efficacy in % found (Phytophthora infestans; Table 21, 20 ppm a.i.): 0%

Compound: phosphorous acid and its salts [F298]
- Efficacy in % found (Venturia inaequalis; Table 32, 50 ppm a.i.): 0%
- Efficacy in % found (Phytophthora infestans; Table 20, 500 ppm a.i.): 76%

Compound: propamocarb hydrochloride [F220]
- Efficacy in % found (Sphaerotheca fuliginea; Table 30, 500 ppm a.i.): 10%
- Efficacy in % found (Venturia inaequalis; Table 31, 250 ppm a.i.): 0%
- Efficacy in % found (Alternaria solani; Table 14, 250 ppm a.i.): 12%
- Efficacy in % found (Phytophthora infestans; TABLE 17 (Phytophthora), 500 ppm a.i.): 7%

Compound: propineb [F180]
- Efficacy in % found (Sphaerotheca fuliginea; Table 29, 20 ppm a.i.): 0%
- Efficacy in % found (Venturia inaequalis; Table 33, 10 ppm a.i.): 81%
- Efficacy in % found (Phytophthora infestans; Table 21, 20 ppm a.i.): 8%

Compound: prothioconazole [F41]
- Efficacy in % found (Sphaerotheca fuliginea; Table 29, 1 ppm a.i.): 43%
- Efficacy in % found (Venturia inaequalis; Table 31, 1 ppm a.i.): 0%
- Efficacy in % found (Alternaria solani; Table 12, 2 ppm a.i.): 0%
- Efficacy in % found (Phytophthora infestans; Table 19, 100 ppm a.i.): 45%

Compound: spiroxamine [F46]
- Efficacy in % found ([1]; Table 16, 125 ppm a.i.): 11%
- Efficacy in % found (Sphaerotheca fuliginea; Table 30, 100 ppm a.i.): 30%
- Efficacy in % found (Venturia inaequalis; Table 31, 50 ppm a.i.): 0%
- Efficacy in % found (Alternaria solani; Table 14, 50 ppm a.i.): 46%
- Efficacy in % found (Botrytis cinerea; 100 ppm a.i.): 14%

Compound: tebuconazole [F47]
- Efficacy in % found (Puccinia triticina; Table 23, 31.25 ppm a.i.): 30%
- Efficacy in % found (Puccinia triticina; Table 23, 62.5 ppm a.i.): 60%
- Efficacy in % found ([1]; Table 16, 31.25 ppm a.i.): 78%
- Efficacy in % found (Venturia inaequalis; Table 31, 1 ppm a.i.): 0%
- Efficacy in % found (Alternaria solani; Table 12, 2 ppm a.i.): 35%
- Efficacy in % found (Phytophthora infestans; Table 19, 100 ppm a.i.): 15%
- Efficacy in % found (Septoria tritici; Table 27, 125 ppm a.i.): 57%

Source: patent US20140228214A1, “COMPOSITIONS COMPRISING A STREPTOMYCES-BASED BIOLOGICAL CONTROL AGENT AND A FUNGICIDE” (BAYER CROPSCIENCE LP, priority 2013, published 2014)
